Measurements: the SangsterLogP compilation

What was measured:
[1] = method code SF-AS, from DOI: 10.1002/jps.2600650731; conditions: pH 11.5
[2] = method code SF-GLC, from DOI: 10.1016/j.chemosphere.2005.05.003, PMID: 15967478
[3] = method code SF-AS, from Korenman, Y.; Pazynin, T. (1972). Distribution of nitrosonaphthols between organic solvents and water. J. anal. chem. USSR, 27(4)723-725.; conditions: pH 2.0
[4] = method code SF-HPLC, from Blakemore, C.; Brown, H.; Durant, J.; Emmett, C.; Ganellin, R.; Parsons, E.; Rasmussen, C. (1980). SK&F 92994: a new histamine H2-receptor antagonist. COMMUNICATIONS: Part II. Br. J. Pharmacol., …
[5] = method code SF-AS, from DOI: 10.1016/j.jct.2016.12.034; conditions: pH 7.4
[6] = method code SF-RC, from DOI: 10.1016/j.nucmedbio.2011.07.009, PMID: 21958846; conditions: pH 7.4
[7] = not given; remark: listed apart in the source
[8] = method code SF, from DOI: 10.1016/s0021-9673(01)84246-1
[9] = not given; remark: listed apart in the source
[10] = method code SF-AS, from PMID: 6692390; conditions: pH 4.0
[11] = method code SF-AS, from DOI: 10.1021/jm00128a017, PMID: 2754702; conditions: pH 7.4
[12] = not given; remark: listed apart in the source
[13] = method code SF-AS, from DOI: 10.1021/jm010817i, PMID: 11806714; conditions: pH 7.4
[14] = method code SF-CR+AS, from Korenman, I.; Lineva, S.; Gezikova, N. (1978). Extraction of naphthol-sulfonic acids from aqueous solution. Zh. Prikl. Khim., 51(4)869-871.
[15] = method code SF-AS, from DOI: 10.1016/s0378-5173(98)00405-0, PMID: 10089287; conditions: pH 7.4
[16] = method code SF-RC, from DOI: 10.1002/jlcr.2580210110; conditions: pH 7.4
[17] = method code SF-RC, from DOI: 10.1021/jm070791g.s001, PMID: 17960926
[18] = not given; remark: listed apart in the source
[19] = not given; remark: listed apart in the source
[20] = method code SF-AS, from DOI: 10.1016/0005-2744(69)90103-x, PMID: 4387594
[21] = not given; remark: listed apart in the source
[22] = method code SF, from Zhuang, J.; Mo, H.; An, F.; Yang, K. (1993). Determination of the water solubility and n-octanol/water partition coefficient of pesticide N-(2,4-dimethylphenyl)-N'-methylamidine. Huanjing Huaxue, …
[23] = method code SF-AS, from Dai, Y.; Jiang, J.; Wang, Z.; Xue, Q. (2007). Experimental and QPSR studies on octanol-water partition coefficient of substituted anilines. J. Struct. Chem, 26(12)1449-1454.
[24] = not given; remark: listed apart in the source
[25] = method code SF-AS, from DOI: 10.1139/y89-042, PMID: 2547502; conditions: pH 7.4
[26] = method code SF-AS, from DOI: 10.1016/s0021-9673(01)87148-x, PMID: 1744207; conditions: pH 3.4
[27] = method code SF-AS, from DOI: 10.5012/bkcs.2007.28.7.1183
[28] = method code SF-GLC, from DOI: 10.1021/je970069v
[29] = method code SF-HPLC, from DOI: 10.1002/hlca.19880710534; conditions: pH 7.4
[30] = method code SF-AS, from DOI: 10.2307/3575639, PMID: 7313077; conditions: pH 7.4
[31] = method code SF-AS, from DOI: 10.2116/analsci.13.897; conditions: pH 2.0
[32] = method code SF-CR+AS, from Korenman, I.; Tishchenko, M.; Kombarova, A. (1977). Distribution of dihydroxynaphthalenes between higher alcohols and water. Zh. Prikl. Khim., 50(4)899-901.; conditions: pH 2.0
[33] = method code SF-RC, from DOI: 10.1016/j.nucmedbio.2007.06.005, PMID: 17707813; conditions: pH 7.4
[34] = method code SF-AS, from DOI: 10.1016/0045-6535(95)00267-c
[35] = method code SF-HPLC, from DOI: 10.1016/0378-5173(88)90220-7; conditions: pH 7.4
[36] = method code SF-RC, from Audran, M.; Chanal, J.; Marignan, R.; Cousse, H. (1984). Correlations between structure and pharmacokinetic parameters in a series of cresotinamides. International Journal of Pharmaceutics, …; conditions: pH 1.0
[37] = method code G-HPLC, from DOI: 10.1016/s0021-9673(01)94303-1
[38] = method code SF-CR, from DOI: 10.1042/bj1780443, PMID: 109087; conditions: pH 7.4
[39] = method code SF-AS, from DOI: 10.1016/s0045-6535(00)00181-8, PMID: 11272912
[40] = method code SF-HPLC, from DOI: 10.1021/jm00109a018, PMID: 2033591; conditions: pH 7.0
[41] = method code SF-AS, from DOI: 10.1002/jps.2600711105; conditions: pH 7.4
[42] = method code SF, from DOI: 10.1016/0006-291x(88)90214-8; conditions: pH 7.4
[43] = method code SF-AS, from DOI: 10.1021/jm00047a013, PMID: 7932583
[44] = pH 9.2
[45] = method code SF-AS, from DOI: 10.1111/j.2042-7158.1980.tb13082.x, PMID: 6110743
[46] = method code SF-RC, from DOI: 10.1182/blood.v76.11.2389.bloodjournal76112389, PMID: 2257308; conditions: pH 7.4

## CC/N=C(N)/N=C(\N)Nc1ccc(Cl)cc1
[1]
  logD: 2.14

## CC1=CCC(C(C)C)C=C1 (configuration not stated)
[2]
  logP: 4.58

## O=C(O)/C=C/C(=O)c1ccccc1
other
  logP: 1.53

## O=Nc1ccc2ccccc2c1O
[3]
  logD: 2.57

## COC(=O)c1ccc(CN(C)N=O)cc1
[4]
  logP: 1.21

## CC(=O)Nc1ccc(C=NNC(N)=S)cc1
[5]
  logD: 1.7

## Cc1c(CC(CO)CF)n(C)c(=O)[nH]c1=O (configuration not stated)
[6]
  logD: -0.56

## Cc1ccc(C(C)C)cc1
[7]
  logP: 4.14

## Nc1nc2c(ncn2[C@@H]2O[C@H](CO)[C@@H](O)[C@H]2O)c(=O)[nH]1
[8]
  logP: -1.85

## CC(C)N1C(=O)c2ccccc2NS1(=O)=O
[9]
  logP: 1.95

## CC(=O)c1ccc(NC(=O)N(C)N=O)cc1
[10]
  logD: 0.26

## Nc1nc(N)c2ncn([C@H]3C=C[C@@H](CO)O3)c2n1
[11]
  logD: -0.48

## CC(C)c1ccc(CO)cc1
[12]
  logP: 2.49

## CC(=O)NCc1c(O)c(=O)cc(C)n1C
[13]
  logD: -0.82

## O=S(=O)(O)c1ccc(O)c2ccccc12
[14]
  logP: -0.44

## Cc1nc2ccccn2c(=O)c1C
[15]
  logD: 1.14

## C1C2CC3CC1CC(C2)C3
[16]
  logD: 5.2

## O=c1[nH]c(=O)n([C@H]2C=C[C@@H](CO)C2)cc1I
[17]
  logP: 0.29

## NC(=O)c1cn(Cc2c(F)cccc2F)nn1
[18]
  logP: 0.88

## CNC(=O)Oc1cc(C)c(C)cc1Cl
[19]
  logP: 2.3

## CCCCNc1ccccc1
[20]
  logP: 3.58

## Cc1cnc2n(c1=O)CCCC2C (configuration not stated)
[21]
  logP: 0.69

## CNC=Nc1ccc(C)cc1C
[22]
  logP: 2.92

## CCN(CC)c1ccccc1
[23]
  logP: 3.11

## Clc1cc(Cl)cc(C2(CC(Cl)(Cl)Cl)CO2)c1 (configuration not stated)
[24]
  logP: 4.34

## Nc1ncnc2c1ncn2[C@@H]1O[C@@H]2COP(=O)(O)O[C@H]2[C@H]1O
[25]
  logD: -2.96

## C/C(=C\c1ccccc1)C(=O)O
[26]
  logD: 2.58

## Nc1ccc(S(=O)(=O)Nc2cnc(Cl)cn2)cc1
[27]
  logP: 0.25

## Cc1ccc(C(C)C)c(Cl)c1Cl
[28]
  logP: 5.5

## C=CCC1(CC(C)O)C(=O)NC(=O)NC1=O (configuration not stated)
[29]
  logD: -0.01

## CNC(=O)c1cc(N2CC2)c([N+](=O)[O-])cc1[N+](=O)[O-]
[30]
  logD: 0.44

## CCC(C(=O)O)c1ccccc1 (configuration not stated)
[31]
  logD: 2.47

## Oc1ccc2cccc(O)c2c1
[32]
  logD: 1.94

## Nc1nc(F)c2ncn(CCC(CO)CO)c2n1
[33]
  logD: -0.52

## CC(C)(C#N)Nc1nc(Cl)nc(NC2CC2)n1
[34]
  logP: 1.99

## CC(=O)N(C)S(=O)(=O)c1ccc(C)cc1
[35]
  logD: 1.73

## CCNC(=O)c1cc(Cl)cc(C)c1O
[36]
  logD: 3.55

## CCCCc1ccccc1
[37]
  logP: 4.29

## Cc1cc(=O)oc2cc(O)ccc12
[38]
  logD: 1.9

## COc1cc(C=O)c(OC)c(OC)c1
[39]
  logP: 1.91

## N=c1c2ncn([C@@H]3O[C@H](CO)C[C@@H]3F)c2ncn1O
[40]
  logD: -1.38

## COCC(O)Cn1c([N+](=O)[O-])nc(C(C)=O)c1C (configuration not stated)
[41]
  logD: 0.03

## Cc1cn([C@H]2CC[C@@H](CO)O2)c(=O)[nH]c1=O
[42]
  logD: -0.7

## Cc1cn([C@H]2C[C@H](F)[C@@H](CO)O2)c(=O)[nH]c1=O
[43]
  logP: -0.3

## CN(C)CNC(=O)c1ccccc1
[44]
  logD: 0.85

## CCCCOc1cccc(O)c1
[45]
  logP: 3.03

## CCc1c(O)c(=O)ccn1CCOC
[46]
  logD: -0.08
